Experiments:
[1] = as described in Patent Documents 1, 2 and 5; cited from earlier work
mRNA of COX-2 gene = test: Suppression of COX-2 mRNA expression in gingival epithelial cells stimulated with P. gingivalis vesicles (real-time RT-PCR); format: cell-based; details: human gingival epithelium-derived immortalized cells stimulated with P. gingivalis-derived vesicles; mRNA measured 24 hours after addition, standardized to GAPDH mRNA
Method: The expression levels of mRNA of COX-2 gene were determined.
The P. gingivalis-derived vesicles were prepared as follows: P. gingivalis strain (ATCC 33277) was cultured for 3 days and the cells were removed from the 500 ml culture by centrifugation and filtration. The supernatant was ultracentrifuged at 100,000 G at 4° C. for 1 hour to obtain the desired vesicles. The expression levels of mRNA of COX-2 gene were determined by measuring the amounts of mRNA by real-time RT-PCR 24 hours after addition of each substance. The PCR was performed by using primers specific for the COX-2 gene and amplification was carried out for 45 cycles. The amount of mRNA was standardized to the amount of mRNA of glyceraldehyde-3-phosphate dehydrogenase.
The 80% ethanol fraction obtained in Example 1 was fractionated by reverse-phase HPLC and the resulting fractions corresponding to the respective peaks were collected. As in Example 2, the fractions were incubated with human gingival epithelium-derived immortalized cells stimulated with the vesicles obtained from P. gingivalis (inflammation-inducing agent). The expression levels of mRNA of COX-2 were determined.

cyclooxygenase-1 (COX-1) = cyclooxygenase-1 (COX-1) (Homo sapiens, UniProt P23219); details: according to Non-Patent Document 1; cited from earlier work
Sequence of cyclooxygenase-1 (COX-1) (P23219 24-599, species assumed): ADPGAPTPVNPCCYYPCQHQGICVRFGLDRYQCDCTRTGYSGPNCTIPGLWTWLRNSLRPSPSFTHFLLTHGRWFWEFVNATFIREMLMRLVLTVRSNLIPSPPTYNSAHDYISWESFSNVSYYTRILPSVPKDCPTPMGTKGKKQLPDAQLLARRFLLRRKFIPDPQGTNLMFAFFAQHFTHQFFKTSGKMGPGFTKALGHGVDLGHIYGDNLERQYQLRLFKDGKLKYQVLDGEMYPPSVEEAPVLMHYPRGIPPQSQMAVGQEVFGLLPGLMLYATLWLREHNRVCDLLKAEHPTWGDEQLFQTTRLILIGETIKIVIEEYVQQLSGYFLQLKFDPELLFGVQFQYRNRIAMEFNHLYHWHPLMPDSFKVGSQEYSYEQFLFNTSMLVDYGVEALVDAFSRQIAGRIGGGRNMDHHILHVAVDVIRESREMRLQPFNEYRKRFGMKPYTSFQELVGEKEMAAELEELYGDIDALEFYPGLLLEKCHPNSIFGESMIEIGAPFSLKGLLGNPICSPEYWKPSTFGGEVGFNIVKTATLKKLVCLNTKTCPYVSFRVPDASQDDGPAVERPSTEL

SMILES | anti-inflammatory activity [1] | suppression of the expression of mRNA of COX-2 gene (mRNA of COX-2 gene) | inhibition of cyclooxygenase-1 (COX-1) (cyclooxygenase-1 (COX-1))
O=c1c(O[C@@H]2O[C@H](CO)[C@@H](O)[C@H](O)[C@H]2O)c(-c2ccc(O)c(O)c2)oc2cc(O)cc(O)c12 [isoquercitrin, quercetin-3-O-β-D-glucopyranoside] | exhibit anti-inflammatory activity | activity | –
O=c1c(O[C@@H]2O[C@H](CO)[C@@H](O)[C@H](O)[C@H]2O)c(-c2ccc(O)cc2)oc2cc(O)cc(O)c12 [astragalin, kaempferol-3-O-β-D-glucopyranoside] | exhibit anti-inflammatory activity | activity | –
CC(C)C(=O)c1c(O)cc(O)cc1O[C@@H]1O[C@H](CO)[C@@H](O)[C@H](O)[C@H]1O [MPPG, 2-[(2-methylpropanyl)-phloroglucinol]-1-O-β-D-glucopyranoside] | – | activity | inhibits cyclooxygenase-1 (COX-1)

Reference: patent publication US20100179227A1, “Production method of hop preparation, hop preparation, anti-inflammatory agent, food product and beverage, and oral product” (priority 2006, published 2010)
